Data on 20 molecules can be found in ChEMBL document CHEMBL5107987, “New naphtho/thienobenzo-triazoles with interconnected anti-inflammatory and cholinesterase inhibitory activity” (Eur J Med Chem, 2022).

pIC50: −log10 of the molar value.

The nature of series [1]: Inhibition of TNF-alpha production in LPS-stimulated human PBMC measured after 24 hrs by ELISA. Type of series: functional, cell-based.
Series [2] is described as follows: Cytotoxicity against human PBMC assessed as effect on cell viability measured by Cell Titer Glo assay. The class given is toxicity, cell-based.
The next series has as its target Acetylcholinesterase (Electrophorus electricus, UniProt O42275). Kind of series: Inhibition of electric eel AChE using acetylthiocholine iodide as substrate pre-incubated for 5 mins followed by substrate addition and measured after 6 mins by Ellman's method.
Another series addresses Cholinesterase (Equus caballus, UniProt P81908). As to the kind of experiment: Inhibition of equine serum BuChE using S-butyrylthiocholine iodide as substrate pre-incubated for 5 mins followed by substrate addition and measured after 6 mins by Ellman's method.
In series [3] the target is Acetylcholinesterase (Electrophorus electricus) (UniProt O42275). As to the kind of experiment: Inhibition of electric eel AChE using acetylthiocholine iodide as substrate pre-incubated for 5 mins followed by substrate addition at 500 uM and measured after 6 mins by Ellman's method relative to control.
Acetylcholinesterase (Electrophorus electricus), sequence (O42275 24-633 limits assumed): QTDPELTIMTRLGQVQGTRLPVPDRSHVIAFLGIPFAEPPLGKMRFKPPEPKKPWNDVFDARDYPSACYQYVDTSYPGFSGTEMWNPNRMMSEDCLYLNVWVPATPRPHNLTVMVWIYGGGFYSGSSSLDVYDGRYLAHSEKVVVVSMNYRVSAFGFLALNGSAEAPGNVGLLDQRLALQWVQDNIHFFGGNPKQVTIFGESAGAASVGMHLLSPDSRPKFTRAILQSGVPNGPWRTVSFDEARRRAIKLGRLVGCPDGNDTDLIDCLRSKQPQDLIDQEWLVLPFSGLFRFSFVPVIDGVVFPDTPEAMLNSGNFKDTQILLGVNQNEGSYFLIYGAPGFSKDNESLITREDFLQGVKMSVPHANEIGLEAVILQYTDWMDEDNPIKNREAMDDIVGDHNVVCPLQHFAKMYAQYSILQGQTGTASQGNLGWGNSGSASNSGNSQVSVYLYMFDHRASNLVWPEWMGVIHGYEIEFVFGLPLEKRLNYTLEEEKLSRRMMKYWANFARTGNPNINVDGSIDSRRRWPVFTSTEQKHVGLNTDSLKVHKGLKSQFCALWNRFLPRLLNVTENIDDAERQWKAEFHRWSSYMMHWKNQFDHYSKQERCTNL
For series [4], the target named is Cholinesterase (Equus caballus) (UniProt P81908). Kind of series: Inhibition of equine serum BuChE using S-butyrylthiocholine iodide as substrate pre-incubated for 5 mins followed by substrate addition at 500 uM and measured after 6 mins by Ellman's method relative to control.
Cholinesterase (Equus caballus), sequence (P81908 whole entry): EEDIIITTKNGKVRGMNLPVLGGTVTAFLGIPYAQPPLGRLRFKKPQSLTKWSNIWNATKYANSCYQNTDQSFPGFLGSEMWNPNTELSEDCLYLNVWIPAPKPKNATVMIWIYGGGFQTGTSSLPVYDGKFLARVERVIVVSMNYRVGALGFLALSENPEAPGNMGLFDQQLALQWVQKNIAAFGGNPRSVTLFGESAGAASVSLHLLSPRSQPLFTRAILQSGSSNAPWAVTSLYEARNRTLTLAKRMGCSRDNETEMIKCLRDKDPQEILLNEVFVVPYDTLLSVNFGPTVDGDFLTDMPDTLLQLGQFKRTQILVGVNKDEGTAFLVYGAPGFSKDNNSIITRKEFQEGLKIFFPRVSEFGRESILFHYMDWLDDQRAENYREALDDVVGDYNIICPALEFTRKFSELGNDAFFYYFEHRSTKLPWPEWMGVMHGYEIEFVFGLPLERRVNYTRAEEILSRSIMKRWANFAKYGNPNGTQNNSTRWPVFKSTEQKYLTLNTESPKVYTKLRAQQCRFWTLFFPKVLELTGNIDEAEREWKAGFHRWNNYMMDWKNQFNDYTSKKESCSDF
For series [5] the target is unchanged. As to the kind of experiment: Inhibition of equine serum BuChE using S-butyrylthiocholine iodide as substrate pre-incubated for 5 mins followed by substrate addition at 50 uM and measured after 6 mins by Ellman's method relative to control.
The nature of series [6]: Inhibition of TNF-alpha production in LPS-stimulated human PBMC measured after 24 hrs by ELISA relative to control. Type of series: functional.
In series [7] the target is Acetylcholinesterase (Electrophorus electricus) (UniProt O42275). As to the kind of experiment: Inhibition of electric eel AChE using acetylthiocholine iodide as substrate pre-incubated for 5 mins followed by substrate addition at 1000 uM and measured after 6 mins by Ellman's method relative to control.
The target of series [8] is Cholinesterase (Equus caballus) (UniProt P81908). As to the kind of experiment: Inhibition of equine serum BuChE using S-butyrylthiocholine iodide as substrate pre-incubated for 5 mins followed by substrate addition at 200 uM and measured after 6 mins by Ellman's method relative to control.
Series [9] shares this target. As to the kind of experiment: Inhibition of equine serum BuChE using S-butyrylthiocholine iodide as substrate pre-incubated for 5 mins followed by substrate addition at 800 uM and measured after 6 mins by Ellman's method relative to control.
Series [10] concerns the target Acetylcholinesterase (Electrophorus electricus) (UniProt O42275). As to the kind of experiment: Inhibition of electric eel AChE using acetylthiocholine iodide as substrate pre-incubated for 5 mins followed by substrate addition at 800 uM and measured after 6 mins by Ellman's method relative to control.
Series [11] shares this target. Kind of series: Inhibition of electric eel AChE using acetylthiocholine iodide as substrate pre-incubated for 5 mins followed by substrate addition at 100 uM and measured after 6 mins by Ellman's method relative to control.
Series [12] deals with Cholinesterase (Equus caballus) (UniProt P81908). As to the kind of experiment: Inhibition of equine serum BuChE using S-butyrylthiocholine iodide as substrate pre-incubated for 5 mins followed by substrate addition at 100 uM and measured after 6 mins by Ellman's method relative to control.
Series [13] has the same target. Kind of series: Inhibition of equine serum BuChE using S-butyrylthiocholine iodide as substrate pre-incubated for 5 mins followed by substrate addition at 250 uM and measured after 6 mins by Ellman's method relative to control.

Cholinesterase, sequence (P81908 whole entry): as above
Acetylcholinesterase, sequence (O42275 whole entry): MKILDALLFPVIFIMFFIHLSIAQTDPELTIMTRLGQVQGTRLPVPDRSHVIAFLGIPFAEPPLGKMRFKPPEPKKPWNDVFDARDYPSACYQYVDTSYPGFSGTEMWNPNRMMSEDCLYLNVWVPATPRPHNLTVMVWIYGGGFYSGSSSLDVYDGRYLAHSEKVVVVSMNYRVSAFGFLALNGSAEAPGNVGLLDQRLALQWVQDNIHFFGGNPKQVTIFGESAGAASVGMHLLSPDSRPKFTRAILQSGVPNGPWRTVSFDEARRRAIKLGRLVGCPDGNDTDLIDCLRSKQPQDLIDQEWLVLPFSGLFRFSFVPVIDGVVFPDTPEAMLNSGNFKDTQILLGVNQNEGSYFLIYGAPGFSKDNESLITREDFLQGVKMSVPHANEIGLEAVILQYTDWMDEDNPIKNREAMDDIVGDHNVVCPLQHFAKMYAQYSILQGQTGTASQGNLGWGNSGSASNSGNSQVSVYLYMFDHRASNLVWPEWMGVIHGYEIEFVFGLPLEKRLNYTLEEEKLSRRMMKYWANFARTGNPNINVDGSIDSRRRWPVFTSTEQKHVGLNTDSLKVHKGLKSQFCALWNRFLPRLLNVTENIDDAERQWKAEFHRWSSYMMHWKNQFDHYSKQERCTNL

Consider `C(=C/c1cccs1)/c1cn(CCc2cc3ccccc3[nH]2)nn1`, for which the pIC50 in series [1] was under 4.48; against Acetylcholinesterase, 3.22; on Cholinesterase, 3.63. The Activity entry in series [2] is “Non-Toxic”. The inhibition is 67.4% in series [3] and 59.5% in [4].
For `C=CCn1nnc2ccc3sccc3c21`, the pIC50 is 4.56 in series [1], 4.25 on Acetylcholinesterase and 5.42 on Cholinesterase. In [2], the Activity result is reported as “Non-Toxic”. The inhibition came out at 80% in [5] and 76.9% in series [3].
`CC(C)n1nnc2ccc3ccc(Cl)cc3c21`: the negative-log IC50 (pIC50) in series [1] is 4.65. Moreover, the Activity result in [2] was “Non-Toxic”.
Regarding `CC(C)n1nnc2ccc3ccccc3c21`, the “inhibition (INH)” value in [6] is given as under 50%.
On to `C[C@@H]1C[C@H]2[C@@H]3CCC4=CC(=O)C=C[C@]4(C)[C@@]3(F)[C@@H](O)C[C@]2(C)[C@@]1(O)C(=O)CO` [DEXAMETHASONE], for which, in [1], the pIC50 was 8.44.
In [1], `COc1ccc(Cn2cc(/C=C/c3ccccc3C#N)nn2)cc1` gave a pIC50 of under 4.48. In addition, the Activity result in series [2] is “Non-Toxic”.
As to `CCCn1cc(/C=C\c2cccs2)nn1`, the pIC50 is under 4.48 in series [1] and 4.02 on Cholinesterase. Also, in series [2], the Activity result was “Non-Toxic”. The inhibition in series [7] worked out at 21.9%; in series [8], 66.1%.
For `COc1ccc(Cn2nnc3ccc4cccc(C#N)c4c32)cc1`, the “inhibition (INH)” value in series [6] is listed as under 50%.
`COc1ccc(Cn2cc(/C=C\c3ccccc3C#N)nn2)cc1` showed a pIC50 in series [1] of under 4.48. The Activity result in series [2] is listed as “Non-Toxic”.
`OCCCCn1cc(/C=C\c2cccs2)nn1`: the inhibition in series [9] was found to be 48.7%; in [10] it was 45.2%.
`COc1ccc(Cn2nnc3ccc4ccc(OC)cc4c32)cc1` gave a pIC50 in series [1] of 5.66. The Activity entry in series [2] was “Non-Toxic”.
As to `c1ccc2[nH]c(CCn3nnc4ccc5sccc5c43)cc2c1`, the Activity result in series [2] is “Non-Toxic”. In series [6], the “inhibition (INH)” value is given as under 50%.
On to `C=CCn1cc(/C=C/c2cccs2)nn1`, for which, in series [1], the pIC50 was under 4.48. Moreover, in [2], the Activity entry was “Non-Toxic”.
With `C=CCn1cc(/C=C\c2cccs2)nn1`, the negative-log IC50 (pIC50) in [1] was under 4.48. In series [2], the Activity entry is “Non-Toxic”.
In series [1], `CC(c1ccccc1)n1cc(/C=C\c2cccs2)nn1` (stereo not drawn) showed a negative-log IC50 (pIC50) of under 4.48. Moreover, the Activity entry in series [2] is reported as “Non-Toxic”.
For `COc1ccc2ccc3nnn(CCCCO)c3c2c1`, in [1], the pIC50 is 5.10. Besides, in series [2], the Activity result is on record as “Non-Toxic”.
Regarding `CCCn1nnc2ccc3sccc3c21`, the figures for the inhibition in series [7] and in series [8] were 56.2% and 91.7%, respectively. Further, the “inhibition (INH)” value in [6] was under 50%.
Turning to `O=[N+]([O-])c1ccc(-n2cc(/C=C\c3cccs3)nn2)cc1`, the inhibition was 34.1% in [11] and 12.3% in [12].
The molecule `O=[N+]([O-])c1ccc(-n2nnc3ccc4sccc4c32)cc1` gave a pIC50 at Cholinesterase of 3.35. Besides, the inhibition in series [3] came to 43.3%; in series [4] it was 53.4%. The “inhibition (INH)” value in [6] is under 50%.
On to `CCCn1cc(/C=C/c2cccs2)nn1`, for which, in series [1], the pIC50 was under 4.48. For the same molecule, the Activity entry in series [2] is recorded as “Non-Toxic”. Besides, the inhibition in [3] was found to be 36.9%; in series [13] it was 79.2%.
